{
  "source": "patent US6187810A",
  "about": "“Macrocyclic compounds made from suboxide units” (Donatur Dr. Kerek GmbH, priority 1996, dated 2001)",
  "key": {"mice": {"test_system": "mice", "details": "cited from earlier work; for toxicity in words (blood toxin, irritation): mouse, in vivo"}, "hemoglobin": {"test_system": "hemoglobin", "details": "cited from earlier work"}, "[1]": {"test": "Acute toxicity of cardiac glycosides applied together with the active substances", "assay_type": "in vivo", "source_text": "Furthermore, as was experimentally established, the active substances according to the invention are capable to control the activity of several other essential enzymes, for example collegenases, hyaluronidases, phosphokinases and other enzymes. According to all indications, the active substances according to the invention are useable as endogenous ligands of the Na^+,K^+ -ATPase enzyme."}},
  "note": "Like-named read-outs stand apart in the source and are kept apart here.",
  "data": [
    {"smiles": "O=C=C=C=O", "note": "[C3 O2, carbon suboxide]", "values": [
      {"measurement": "tolerability limit in mice", "setting": "mice; C3 O2 in dry air", "value": "0.2-0.4%"},
      {"measurement": "toxicity in words (blood toxin, irritation)", "setting": "mice", "value": "irritating to mucus membranes"},
      {"measurement": "toxicity in words (blood toxin, irritation)", "setting": "mice; listed as Carbon suboxide", "value": "relatively strong blood toxin"},
      {"measurement": "binding to hemoglobin", "setting": "hemoglobin", "value": "irreversibly binds hemoglobin"}
    ]},
    {"smiles": "C[C@@H]1O[C@@H](O[C@H]2C[C@@H](O)[C@]3(CO)[C@H]4[C@H](O)C[C@]5(C)[C@@H](C6=CC(=O)OC6)CC[C@]5(O)[C@@H]4CC[C@]3(O)C2)[C@H](O)[C@H](O)[C@H]1O", "note": "[ouabain]", "values": [
      {"measurement": "toxic side-effects of cardiac glycoside", "setting": "[1]; active substances applied together with the glycoside", "value": "reduction of the toxic side-effects"}
    ]},
    {"smiles": "C[C@@H]1O[C@@H](O[C@H]2CC[C@]3(C=O)[C@H]4CC[C@]5(C)[C@@H](c6ccc(=O)oc6)CC[C@]5(O)[C@@H]4CC[C@]3(O)C2)[C@H](O)[C@H](O)[C@H]1O[C@@H]1O[C@H](CO)[C@@H](O)[C@H](O)[C@H]1O", "note": "[hellebrin]", "values": [
      {"measurement": "LD50", "setting": "[1]; with active substances at molar ratio 0.02 to 2/1 mol glycoside, preferably 1:1", "value": "considerably higher"}
    ]}
  ]
}
